Measurements from patent US20130142717A1, “OFFSHORE GAS SEPARATION PROCESS” (priority 2011, published 2013).
Where two headings read alike, the source gives them in different places.

Tests used:
[1] = system: Daphnia sp.; details: for Classification (aquatic toxicity): based on Daphnia 48 hours EC50
[2] = system: Fish; experiment: Experimental fish 96-hour acute toxicity (values in brackets in Table 4); format: in vivo; details: experimental result (value in brackets)

| Compound | Classification (aquatic toxicity) [1] | Biodegradability (day 0, 20° C.) | Biodegradability (day 1, 20° C.) | Biodegradability (day 2, 20° C.) | Biodegradability (day 3, 20° C.) | Biodegradability (day 4, 20° C.) | Biodegradability (day 5, 20° C.) | Biodegradability (day 6, 20° C.) | Biodegradability (day 7, 20° C.) | Biodegradability (day 8, 20° C.) | Biodegradability (day 9, 20° C.) | Biodegradability (day 10, 20° C.) | Biodegradability (day 11, 20° C.) | Biodegradability (day 12, 20° C.) | Biodegradability (day 13, 20° C.) | Biodegradability (day 14, 20° C.) | Biodegradability (day 15, 20° C.) | Biodegradability (day 16, 20° C.) | Biodegradability (day 17, 20° C.) | Biodegradability (day 18, 20° C.) | also measured |
| --- | --- | --- | --- | --- | --- | --- | --- | --- | --- | --- | --- | --- | --- | --- | --- | --- | --- | --- | --- | --- | --- |
| COCCOCCOCCNC(C)(C)C [B, Methoxyethoxyethoxyethanol-tert-butylamine] | No classification | 0 | 0.00 | 0.20 | 0.30 | 0.60 | 1.02 | 1.54 | 2.09 | 3.00 | 3.81 | 1.89 | 3.82 | 4.04 | 4.70 | 5.70 | 6.03 | 6.56 | 7.14 | 7.65 | Daphnia Experimental, 48 hours, EC50 ([1]; experimental, 48 hours): EC50 > 100 mg/l; Biodegradability (day 19, 20° C.): 9.52; Biodegradability (day 20, 20° C.): 7.55; Biodegradability (day 21, 20° C.): 7.55; Biodegradability (day 22, 20° C.): 7.55; Biodegradability (day 23, 20° C.): 7.55; Biodegradability (day 24, 20° C.): 7.55; Biodegradability (day 25, 20° C.): 7.55; Biodegradability (day 26, 20° C.): 7.55; Biodegradability (day 27, 20° C.): 7.55; Biodegradability (day 28, 20° C.): 7.55 |
| CC(C)(C)NCCOCCOCCNC(C)(C)C [D, Bis-(t-butylamino ethoxy)ethane (bis-(t-butylamino)triethylene glycol)] | Harmful to aquatic | – | – | – | – | – | – | – | – | – | – | – | – | – | – | – | – | – | – | – | – |
| Ethoxyethanol-tert-butylamine (tert-butylamino-ethoxy-ethanol) | Harmful to aquatic | 0 | 0.05 | 0.00 | 0.00 | 0.00 | 0.00 | 0.00 | 0.06 | 1.68 | 3.34 | 0.47 | 0.56 | 0.76 | 0.91 | 1.04 | 1.16 | 1.33 | 1.51 | 1.56 | Daphnia 48-hour LC50 ([1]; experimental result (value in brackets)): 31.6 mg/L; Fish 96-hour LC50 [2]: 225 mg/L; Biodegradability (day 19, 20° C.): 1.58; Biodegradability (day 20, 20° C.): 1.71; Biodegradability (day 21, 20° C.): 1.89; Biodegradability (day 22, 20° C.): 2.00; Biodegradability (day 23, 20° C.): 1.95; Biodegradability (day 24, 20° C.): 2.00; Biodegradability (day 25, 20° C.): 2.06; Biodegradability (day 26, 20° C.): 2.06; Biodegradability (day 27, 20° C.): 2.06; Biodegradability (day 28, 20° C.): 2.06 |
